Laboratory results taken from patent US10138255B2, “Piperazine derivatives as HIV protease inhibitors” (Merck Sharp & Dohme Corp., priority 2014, dated 2018).

Test system: HIV-1 (H9IIIB strain)
Assay: Cell-Based HIV Infection Assay Using a Reporter (MT4-GFP cells)
Details: Human immunodeficiency virus 1, inflection point (IP) of viral growth inhibition; MT4-GFP cells infected with HIV-1 H9IIIB; 50% normal human serum; mean of at least two independent experiments; read-out: Cell Based IP (50% NHS)
In short: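 Inflection point from a 4-parameter curve of % viral growth inhibition, normalised to DMSO and triple-drug controls, using the 48 h/24 h ratio of GFP-positive cells (R0). MT4-GFP cells pre-infected 24 h with HIV-1 H9IIIB at low MOI; compounds tested in 50% normal human serum, 0.4% DMSO; mean of ≥2 experiments.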

CCO[C@H]1CC[C@H]([C@H](c2ccc(F)cc2)[C@H](NC(=O)OC)C(=O)Nc2cccc(F)c2CC[C@H]2CN[C@@H]3CCCS(=O)(=O)N2C3)CC1 [Example 211, methyl {(1S)-2-[(2-{2-[(6R,9S)-2,2-dioxido-2-thia-1,7-diazabicyclo[4.3.1]dec-9-yl]ethyl}-3-fluorophenyl)amino]-1-[(R)-[(1r,4R)-4-ethoxycyclohexyl](4-fluorophenyl)methyl]-2-oxoethyl}carbamate] and COC(=O)N[C@H](C(=O)Nc1cccc(F)c1CC[C@H]1CN[C@@H]2CCCS(=O)(=O)N1C2)[C@@H](c1ccc(F)cc1)[C@H]1CC[C@H](OC)CC1 [Example 117, methyl [(1S)-2-[(2-{2-[(6R,9S)-2,2-dioxido-2-thia-1,7-diazabicyclo[4.3.1]dec-9-yl]ethyl}-3-fluorophenyl)amino]-1-{(R)-(4-fluorophenyl)[(1r,4R)-4-methoxycyclohexyl]methyl}-2-oxoethyl]carbamate] are within 1.5-fold of each other in EC50: 6.4 nM for the first, 5 nM for the second.

Going from NC(C(=O)Nc1cccc(F)c1CC[C@H]1CN[C@@H]2CCCS(=O)(=O)N1C2)[C@@H](c1ccc(Cl)cc1)[C@H]1CC[C@H](O)CC1 (stereo partly drawn) [Example 217, (βR)-4-chloro-N-(2-{2-[(6R,9S)-2,2-dioxido-2-thia-1,7-diazabicyclo[4.3.1]dec-9-yl]ethyl}-3-fluorophenyl)-β-[(1r,4R)-4-hydroxycyclohexyl]-L-phenylalaninamide] to N[C@H](C(=O)Nc1cccc(F)c1CC[C@H]1CNC[C@@H]2CCCS(=O)(=O)N1C2)[C@@H](c1ccc(Cl)cc1)C1CCOCC1 [Example 274, (2S,3R)-2-Amino-3-(4-chlorophenyl)-N-(2-(2-((6S,10S)-2,2-dioxido-2-thia-1,8-diazabicyclo[4.4.1]undecan-10-yl)ethyl)-3-fluorophenyl)-3-(tetrahydro-2H-pyran-4-yl)propanamide], the EC50 rises from 13 nM to 670 nM (52-fold).

COC(=O)N[C@H](C(=O)Nc1ccc(F)c(F)c1CC[C@H]1CN[C@@H]2CCCS(=O)(=O)N1C2)[C@@H](c1ccc(F)cc1)C1C[C@@H](C)O[C@@H](C)C1 (stereo partly drawn) [Example 228, Methyl [(1S,2R)-2-[(2R,6S)-2,6-dimethyltetrahydro-2H-pyran-4-yl]-1-[(2-{2-[(6R,9S)-2,2-dioxido-2-thia-1,7-diazabicyclo[4.3.1]dec-9-yl]ethyl}-3,4-difluorophenyl)carbamoyl]-2-(4-fluorophenyl)ethyl]carbamate] and COC(=O)N[C@H](C(=O)Nc1cccc(F)c1CCC1CNC2CCCS(=O)(=O)N1C2)[C@@H](c1ccc(F)cc1)c1cccc(C(F)(F)F)c1 (stereo partly drawn) [Example 63, methyl [(1S)-2-({2-[2-(2,2-dioxido-2-thia-1,7-diazabicyclo[4.3.1]dec-9-yl)ethyl]-3-fluorophenyl}amino)-1-{(S)-(4-fluorophenyl)[3-(trifluoromethyl)phenyl]methyl}-2-oxoethyl]carbamate] are within 1.5-fold of each other in EC50: 10 nM for the first, 14 nM for the second.

Going from COC(=O)N1CCC(c2ccc(Cl)cc2)([C@H](N)C(=O)Nc2cccc(F)c2CC[C@H]2CN[C@@H]3CCCS(=O)(=O)N2C3)CC1 [Example 14, Methyl 4-{(1S)-1-amino-2-[(2-{2-[(6R,9S)-2,2-dioxido-2-thia-1,7-diazabicyclo[4.3.1]dec-9-yl]ethyl}-3-fluorophenyl)amino]-2-oxoethyl}-4-(4-chlorophenyl)piperidine-1-carboxylate] to COC(=O)N[C@H](C(=O)Nc1cccc(F)c1CC[C@H]1CN[C@@H]2CCCS(=O)(=O)N1C2)[C@]1(c2ccc(Cl)cc2)CC[C@@H](OC)CC1 [Example 13, Methyl {(1S)-1-[trans-1-(4-chlorophenyl)-4-methoxycyclohexyl]-2-[(2-{2-[(6R,9S)-2,2-dioxido-2-thia-1,7-diazabicyclo[4.3.1]dec-9-yl]ethyl}-3-fluorophenyl)amino]-2-oxoethyl}carbamate], the EC50 falls from 14 nM to 7.6 nM (1.8-fold). The second is the more potent here.

Compared with CO[C@H]1CC[C@H]([C@H](c2ccc(F)cc2)[C@H](N)C(=O)Nc2cncc(F)c2CC[C@H]2CN[C@@H]3CCCS(=O)(=O)N2C3)CC1 [Example 27, (2S,3R)-2-Amino-N-(4-(2-((6R,9S)-2,2-dioxido-2-thia-1,7-diazabicyclo[4.3.1]decan-9-yl)ethyl)-5-fluoropyridin-3-yl)-3-(4-fluorophenyl)-3-((1r,4R)-4-methoxycyclohexyl)propanamide], CCC(CC)[C@H](c1ccc(Cl)cc1)[C@H](N)C(=O)Nc1cccc(F)c1CCC1CNC2CCCS(=O)(=O)N1C2 (stereo partly drawn) [Example 70, (βR)-4-chloro-N-{2-[2-(2,2-dioxido-2-thia-1,7-diazabicyclo[4.3.1]dec-9-yl)ethyl]-3-fluorophenyl}-β-(1-ethylpropyl)-L-phenylalaninamide] is 6.5-fold higher in EC50: 7.5 nM for the first, 49 nM for the second. The first is the more potent here.

Compared with N[C@H](C(=O)N[C@H]1CCCC[C@@H]1CC[C@H]1CN[C@@H]2CCCS(=O)(=O)N1C2)[C@@H](c1ccc(Cl)cc1)C1CCOCC1 [Example 24, (βR)-4-Chloro-N-[(1S,2R)-2-{2-[(6R,9S)-2,2-dioxido-2-thia-1,7-diazabicyclo[4.3.1]dec-9-yl]ethyl}cyclohexyl]-β-(tetrahydro-2H-pyran-4-yl)-L-phenylalaninamide], C[C@@H]1CC([C@H](c2ccc(F)cc2)[C@H](N)C(=O)N[C@H]2CCC[C@@H]2CC[C@H]2CN[C@@H]3CCCS(=O)(=O)N2C3)C[C@H](C)O1 (stereo partly drawn) [Example 107, (βR)-β-[(2R,4s,6S)-2,6-dimethyltetrahydro-2H-pyran-4-yl]-N-[(1S,2R)-2-{2-[(6R,9S)-2,2-dioxido-2-thia-1,7-diazabicyclo[4.3.1]dec-9-yl]ethyl}cyclopentyl]-4-fluoro-L-phenylalaninamide] is 6.5-fold higher in EC50: 13 nM for the first, 84 nM for the second. The first is the more potent here.

Going from COC(=O)N[C@H](C(=O)N[C@H]1CCC[C@@H]1CC[C@H]1CN[C@@H]2CCCS(=O)(=O)N1C2)[C@@H](c1ccc(Cl)cc1)c1ccc(OC)nc1 [Example 78, methyl [(1S,2S)-2-(4-chlorophenyl)-1-{[(1S,2R)-2-{2-[(1S,2S)-2,2-dioxido-2-thia-1,7-diazabicyclo[4.3.1]dec-9-yl]ethyl}cyclopentyl]carbamoyl}-2-(6-methoxypyridin-3-yl)ethyl]carbamate] to COC(=O)N[C@H](C(=O)N[C@H]1CCCC[C@@H]1CC[C@H]1CN[C@@H]2CCCS(=O)(=O)N1C2)[C@@H](c1ccc(Cl)cc1)c1cc(F)cc(F)c1 [Example 100, methyl [(1S,2S)-2-(4-chlorophenyl)-2-(3,5-difluorophenyl)-1-{[(1S,2R)-2-{2-[(6R,9S)-2,2-dioxido-2-thia-1,7-diazabicyclo[4.3.1]dec-9-yl]ethyl}cyclohexyl]carbamoyl}ethyl]carbamate], the EC50 falls from 38 nM to 24 nM (1.6-fold). The second is the more potent here.

First: COC(=O)N[C@H](C(=O)Nc1cccc(F)c1CCC1CNC2CCCS(=O)(=O)N1C2)[C@@H](c1ccc(Cl)cc1)c1cncc(C(C)(F)F)c1 (stereo partly drawn) [Example 114, methyl [(1S,2S)-2-(4-chlorophenyl)-2-[5-(1,1-difluoroethyl)pyridin-3-yl]-1-({2-[2-(2,2-dioxido-2-thia-1,7-diazabicyclo[4.3.1]dec-9-yl)ethyl]-3-fluorophenyl}carbamoyl)ethyl]carbamate]
Second: COC(=O)N[C@H](C(=O)Nc1cccc(F)c1CCC1CNC2CCCS(=O)(=O)N1C2)[C@H](c1cncc(C(F)(F)F)c1)c1ccc(Cl)c(F)c1 (stereo partly drawn) [Example 19, Methyl {(1S,2S)-2-(4-chloro-3-fluorophenyl)-1-({2-[2-(2,2-dioxido-2-thia-1,7-diazabicyclo[4.3.1]dec-9-yl)ethyl]-3-fluorophenyl}carbamoyl)-2-[5-(trifluoromethyl)pyridin-3-yl]ethyl}carbamate]
The EC50 of the first is 4.2-fold higher: 22 nM for the first, 5.2 nM for the second. The second is the more potent here.
